# Measured values taken from patent US20230414628A1, “METHODS FOR TREATING DISEASES MEDIATED BY GLUTATHIONE PEROXIDASE 4” (priority 2022, published 2023).
# Structures can show the parent of a compound that is named as a salt.
# System: RAG01 (derived from fibroblasts of a patient diagnosed with SSMD) fibroblasts
# Assay: CellTiter-Glo concentration response in RAG01 fibroblasts
# Format: cell-based, human
# Conditions: Homo sapiens, Fibroblast; RAG01 cell line; 72 hours incubation; CellTiter-Glo; percentage effect normalized to vehicle control; 10-point CRC from 10 μM; read-out: EC50
# Method: Compounds described herein were tested in three cell lines, RAG01 (derived from fibroblasts of a patient diagnosed with SSMD) fibroblasts, RAG02 (derived from fibroblasts of the patient's parent), and GM09503 (from supplier Corriell) (derived from a healthy donor) to each generate 10-point concentration response curves (CRC). The three cell lines were each thawed seven (7) days prior to seeding. The RAG01 cells were thawed in a medium supplemented with a-tocopherol. Cells were passaged four (4) days prior to the seeding. The α-tocopherol was removed from the RAG01 cells. Cells were then seeded at 900 cells per well in 384-well plates. Two replicates were prepared for two independent (replicate) experiments. All plates were then incubated with compounds described herein for 72 hours, prior to CellTiter-Glo assay. […] The assay was run using the CellTiter-Glo (Promega) following manufacturer's guidelines and luminescent spectrophotometric reading on PHERAstar FSX (BMG Labtech). A 0.1% dimethylsulfoxide (DMSO) was used as a blank (vehicle control); and a 1 μM Ferrostatin-1 was used as a control (CTRL).
# The raw data was analyzed using Activity Base® software. The compounds were evaluated by efficacy (percentage effect) normalized to the vehicle control. The percentage effect (PE) was determined from the signal increase in comparison to the vehicle control according to the formula below: […]
# The percentage effect values were then plotted against log concentration of the drug to generate a concentration response curve. The curves were fitted using a four-parameter fit, and curve tops and hillslopes were fixed where required and justified.
row,Structure (SMILES),EC50 [µM]
1,"CC1=C(C(=O)OC(C)C)C(c2cccc([N+](=O)[O-])c2)C(C(=O)OC2CN(C(c3ccccc3)c3ccccc3)C2)=C(N)N1 (stereo not shown) [compound 1, azelnidipine]",3.12
2,"COC(=O)C1=C(C)NC(C)=C(C(=O)OCCN2CCN(C(c3ccccc3)c3ccccc3)CC2)C1c1cccc([N+](=O)[O-])c1 (stereo not shown) [compound 2, manidipine]",2.9
3,"Cc1c(-c2ccc(O)cc2)n(Cc2ccc(OCCN3CCCCCC3)cc2)c2ccc(O)cc12 [compound 3, bazedoxifene]",0.24
4,"CN1CCN(c2ccc(C(=O)c3c(-c4ccc(O)cc4)sc4cc(O)ccc34)cc2)CC1 [compound 4, Y-134]",0.43
5,"O=C(c1ccc(OCCN2CCCCC2)cc1)c1c(-c2ccc(O)cc2)sc2cc(O)ccc12 [compound 5, raloxifene]",0.458
6,"CCCCCS(=O)(=O)CCCCCCCCCCn1c(-c2ccc(O)cc2)c(C)c2cc(O)ccc21 [compound 6, ZK-164015]",1.63
7,"Brc1cc2c(cc1[C@@H]1Nc3ccccc3[C@@H]3C=CC[C@@H]31)OCO2 [compound 7, G-15]",1.66
8,"CC(C)=CCc1c(O)cc(O)c2c(=O)c(O)c(-c3ccc(C(F)(F)F)cc3)oc12 [compound 8, SNG1153]",5.51
9,"COc1ccc(Nc2ccn(-c3ccccc3)n2)cc1 [compound 9, FPL 62064]",0.053
10,"O=C1c2ccccc2-n2c1nc1ccccc1c2=O [compound 10, trypthanthrin]",0.18
11,"C=CCc1ccc(O)c(-c2ccc(O)c(CC=C)c2)c1 [compound 12, honokiol]",1.21
12,CC1(S(=O)(=O)O)CC(=O)c2ccccc2C1=O (stereo not shown) [compound 13],1.57
13,"COC1=C(OC)C(=O)C(CCCCCCCCCCO)=C(C)C1=O [compound 14, idebenone]",1.6
14,"CC(c1cc2ccccc2s1)N(O)C(N)=O (stereo not shown) [compound 15, Zileuton]",1.87
15,"O=c1c(O)c(-c2ccc(O)cc2)oc2cc(O)cc(O)c12 [compound 16, kaempferol]",3.21
16,"CCNCc1cc(C(C)(C)C)c(O)c(C(C)(C)C)c1 [compound 17, LY 231617]",7.36
17,"CC(=O)O[C@]1(C(C)=O)CC[C@H]2[C@@H]3CCC4=CC(=O)CCC4=C3[C@@H](c3ccc(N(C)C)cc3)C[C@@]21C [compound 18, ulipristal acetate]",2.34
18,"C#C[C@]1(O)CC[C@H]2[C@@H]3CCc4cc(O)ccc4[C@H]3CC[C@@]21C [compound 19, ethinyl estradiol]",4.49
19,"CC#C[C@]1(O)CC[C@H]2[C@@H]3CCC4=CC(=O)CCC4=C3[C@@H](c3ccc(N(C)C)cc3)C[C@@]21C [compound 20, Mifepristone]",2.27
20,"Oc1ccc(/C=C/c2cc(O)cc(O)c2)cc1 [compound 22, resveratrol]",6.81
21,"COc1cc(/C=C/c2ccc(O)cc2)cc(OC)c1 [compound 23, pterostilbene]",1.61

row,Structure (SMILES),EC50 [µM]
1,"CC(Cc1ccc(O)c(O)c1)C(C)Cc1ccc(O)c(O)c1 (stereo not shown) [compound 24, Nordihydroguaiaretic acid]",2.49
2,"COc1cc(C[C@H](C)[C@H](C)Cc2ccc3c(c2)OCO3)ccc1O [compound 25, macelignan]",2.86
3,"CC(=O)Oc1c(C)cc(OCC(O)CNC(C)C)c(C)c1C (stereo not shown) [compound 26, metipranolol]",0.403
4,"CC(C)NCC(O)COc1cccc2[nH]c3ccccc3c12 (stereo not shown) [compound 27, carazolol]",3.11
5,"COc1ccccc1OCCNCC(O)COc1cccc2[nH]c3ccccc3c12 (stereo not shown) [compound 28, carvedilol]",4.91
6,"CCc1cc2c(cc1CC)CC(NC[C@H](O)c1ccc(O)c3[nH]c(=O)ccc13)C2 [compound 29, indacaterol]",1.39
7,"CC(=O)Oc1cc(C(C)C)c(OCCN(C)C)cc1C [compound 30, Moxisylyte]",0.739
8,"Cc1cc(C(C)(C)C)c(O)c(C)c1CC1=NCCN1 [compound 31, oxymetazoline]",1.46
9,"CN1CCN2c3c(cccc31)[C@@H]1CN(CCCC(=O)c3ccc(F)cc3)CC[C@@H]12 [compound 32, lumateperone]",0.636
10,"Clc1ccc2c(c1)N=C(N1CCNCC1)c1ccccc1N2 [compound 34, desmethylclozapine]",2.66
11,"CC(C)(C)[C@@]1(O)CCN2C[C@@H]3c4ccccc4CCc4cccc(c43)[C@H]2C1 [compound 35, butaclamol]",2.57
12,"CN1CCc2cccc3c2[C@H]1Cc1ccc(O)c(O)c1-3 [compound 36, apomorphine]",0.14
13,"Oc1cc2c(cc1O)C(c1ccccc1)CNCC2 (stereo not shown) [compound 38, SKF-38,393]",4.31
14,"CCCN(C/C=C/I)C1CCc2ccc(O)cc2C1 (stereo not shown) [compound 40, 7-hydroxy-PIPAT]",2.73
15,"CCCN(CCc1cccs1)[C@H]1CCc2c(O)cccc2C1 [compound 41, rotigotine]",3.95
16,"CCOC(=O)Nc1ccc2c(c1)N(C(=O)CCN(CC)CC)c1ccccc1S2 [compound 42, ethacizine]",0.478
17,"CC(CN(C)C)CN1c2ccccc2Sc2ccc(C#N)cc21 (stereo not shown) [compound 43, cyamemazine]",1.39
18,"OCCN1CCN(CCCN2c3ccccc3Sc3ccc(Cl)cc32)CC1 [compound 44, perphenazine]",1.41
19,"O=C(CN1CCN(Cc2ccc3c(c2)OCO3)CC1)N1c2ccccc2Sc2ccccc21 [compound 46, fenoverine]",1.5
20,"CC(CN(C)C)CN1c2ccccc2Sc2ccccc21 (stereo not shown) [compound 47, trimeprazine]",1.67
21,"CN1CCCC(CN2c3ccccc3Sc3ccccc32)C1 (stereo not shown) [compound 48, mepazine]",1.84

row,Structure (SMILES),EC50 [µM]
1,"COc1ccc2c(c1)N(C[C@H](C)CN(C)C)c1ccccc1S2 [compound 49, Levomepromazine]",3.21
2,"COc1ccc2cccc(N3CCN(CCNC(=O)c4ccc(F)cc4)CC3)c2c1 [compound 50, S-14,506]",0.928
3,"Cc1[nH]c2ccc(Cl)cc2c1C1=CCNCC1 [compound 51, EMD-386088]",1.35
4,"CCCN(C/C=C/I)C1CCc2cccc(O)c2C1 (stereo not shown) [compound 52, 8-hydroxy-PIPAT]",2.38
5,"COc1ccc(CC2NCCc3c2[nH]c2ccc(C)cc32)c(Cl)c1OC (stereo not shown) [compound 53, LY-266,097]",2.71
6,"Oc1ccc2c3c1OC1c4c(c5ccccc5n4Cc4ccccc4)C[C@@]4(O)C(C2)N(CC2CC2)CC[C@]314 (stereo partly shown) [compound 54, N-Benzylnaltrindole HCl]",0.381
7,"Oc1ccc2c3c1O[C@H]1c4oc5ccccc5c4C[C@@]4(O)[C@@H](C2)N(CC2CC2)CC[C@]314 [compound 55, Naltriben]",1.32
8,"C=C(C)CN1CC[C@]23c4c5ccc(O)c4OC2c2[nH]c4ccccc4c2C[C@@]3(O)[C@H]1C5 (stereo partly shown) [compound 56, SDM25N]",1.41
9,"Oc1ccc2c3c1O[C@H]1c4[nH]c5ccccc5c4C[C@@]4(O)[C@@H](C2)N(CC2CC2)CC[C@]314 [compound 57, Naltrindole]",2.41
10,"CC(C)(CO)Cc1cc(C(C)(C)C)c(O)c(C(C)(C)C)c1 [compound 58, 2,6-ditert-butyl-4-(3-hydroxy-2,2-dimethylpropyl)phenol]",0.35
11,"CC(C)(C=O)Cc1cc(C(C)(C)C)c(O)c(C(C)(C)C)c1 [compound 59, 3-(3,5-Ditert-butyl-4-hydroxyphenyl)-2,2-dimethylpropanal]",0.928
12,"Brc1ccc(NC2C3CC4CC(C3)CC2C4)cc1 (stereo not shown) [compound 60, bromantane]",0.429
13,"COc1cc2c(cc1O)C(CCc1ccc(Cl)cc1)N(C)CC2 (stereo not shown) [compound 61, Ro 04-5595]",0.652
14,"COc1ccc2c(c1)CN(C)CC2c1ccc(Cl)c(Cl)c1 (stereo not shown) [compound 62, Diclofensine]",3.85
15,"CO[C@H]1/C=C/O[C@@]2(C)Oc3c(C)c(O)c4c(O)c(c5c(nc6cc(C)ccn65)c4c3C2=O)NC(=O)/C(C)=C\C=C\[C@H](C)[C@H](O)[C@@H](C)[C@@H](O)[C@@H](C)[C@H](OC(C)=O)[C@@H]1C [compound 64, rifaximin]",0.708
16,"CC(C)(C)CC(C)(C)c1ccc(O)c(Cc2ccc(Cl)cc2Cl)c1 [compound 65, clofoctol]",2.23
17,"O=C1NC(=O)c2cc(Nc3ccccc3)c(Nc3ccccc3)cc21 [compound 66, CGP 52411]",0.202
18,"C=CC(=O)Nc1cc(Nc2nccc(-c3cn(C)c4ccccc34)n2)c(OC)cc1N(C)CCN(C)C [compound 67, osimertinib]",0.245
19,"C=CC(=O)Nc1cccc(Nc2nc(Nc3ccc(NC4CN(CCF)C4)cc3OC)ncc2C(F)(F)F)c1 [compound 68, CNX-2006]",0.366
20,"C=CC(=O)Nc1cccc(Oc2nc(Nc3ccc(N4CCN(C)CC4)cc3)nc3ccsc23)c1 [compound 70, Olmutinib]",0.485
21,"CS(=O)(=O)CCNCc1ccc(-c2ccc3ncnc(Nc4ccc(OCc5cccc(F)c5)c(Cl)c4)c3c2)o1 [compound 71, lapatinib]",5.13

# Same assay, conditions: RAG01 cell line; 72 hours incubation; CellTiter-Glo; percentage effect normalized to vehicle control; 10-point CRC from 10 μM; read-out: EC50
row,Structure (SMILES),EC50 [µM]
1,"NC[C@@H]1O[C@H](C23CC4CC(CC(C4)C2)C3)Cc2c1ccc(O)c2O [compound 39, A77636]",0.652
